{"source": "paper PMC10376326", "about": "“Novel Acylselenourea Derivatives: Dual Molecules with Anticancer and Radical Scavenging Activity” (Antioxidants, 2023)", "key": {"[1]": {"test_system": "HTB-54 (lung) cancer cell line", "experiment": "MTT cell viability assay, HTB-54", "format": "cell-based, human", "conditions": "IC50 (BEAS-2B)/IC50 (HTB-54)"}, "[2]": {"test_system": "MDA-MB-231 (breast) cancer cell line", "experiment": "MTT cell viability assay, MDA-MB-231", "format": "cell-based, human", "conditions": "Breast, MTT, 48 h; read-out: IC50 MDA-MB-231", "method_in_brief": "(§1)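 MDA-MB-231, HTB-54 and DU-145 grown in RPMI 1640, HT-29 in McCoy's 5A (10% FBS). Output is % cell growth; IC50 determined; ≥3 experiments in quadruplicate.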"}, "[3]": {"test_system": "DU-145 (prostate) cancer cell line", "experiment": "MTT cell viability assay, DU-145", "format": "cell-based, human", "conditions": "Prostate, MTT, 48 h; read-out: IC50 DU-145", "method_in_brief": "as §1"}, "[4]": {"test_system": "HTB-54 (lung) cancer cell line", "parameters": "method as in PMID 22397496", "conditions": "cited from earlier work"}, "[5]": {"test_system": "non-malignant BEAS-2B lung cell line", "parameters": "method as in doi:10.30918/IRJMMS.72.19.022", "conditions": "cited from earlier work"}}}
{"compound": "N.N.[Cl][Pt][Cl]", "note": "[Cisplatin, reference compound]", "values": [{"measurement": "SI", "setting": "[1]", "value": 0.63}, {"measurement": "IC50", "setting": "[2]", "value": "5.5 ± 0.5", "unit": "µM"}, {"measurement": "IC50", "setting": "[3]", "value": "6.2 ± 0.1", "unit": "µM"}, {"measurement": "IC50", "setting": "[4]", "value": 13.7, "unit": "µM"}, {"measurement": "IC50", "setting": "[5]", "value": 8.63, "unit": "µM"}]}
